Entries after “also recorded” stand apart in the source; their conditions may differ.
Key:
[1] = cited from earlier work
[2] = Sodium fluorescein clearance kinetics in blood and bile in the in vivo rat hepatic IRI model; set-up: species or system Sprague-Dawley rats
Description: Male 7- to 8-wk-old Sprague-Dawley rats (median body weight of 243 g, interquartile range of 228-260 g, Charles River Laboratories) were housed in an animal facility accredited by the Association for Assessment and Accreditation of Laboratory Animal Care. The rats were fed Purina Lab Diet 5001 and reverse osmosis water ad libitum. All animals received humane care in accordance with the National Institutes of Health Guide for the Care and Use of Laboratory Animals. Only male rats were used in these experiments because multidrug resistance-associated protein 2 (MRP2), which is responsible for fluorescein excretion from the hepatocyte, is impaired by estradiol glucuronide. All experiments were approved by the Institutional Animal Care and Use Committee at the Medical College of Wisconsin (animal use Application No. 00004857).
We evaluated the effect of hepatic IRI on sodium fluorescein clearance by applying different warm ischemia times (WITs; 0 min, 30 min, or 60 min) and reperfusion times (1 h or 4 h). Thus, there were five experimental groups (n=5 each) based on ischemia and reperfusion times: no ischemia (control), brief ischemia (30 min) followed by 1 h of reperfusion, prolonged ischemia (60 min) followed by 1 h of reperfusion, brief ischemia (30 min) followed by 4 h of reperfusion, and prolonged ischemia (60 min) followed by 4 h of reperfusion (FIG. 32A).
Surgery was performed under isoflurane inhalation anesthesia (1%-3%; oxygen flow 1 L/min). Animals were placed on a warming pad set to obtain a temperature of around 39° C. (Far Infrared Warming Pad, Kent Scientific, Torrington, CT). A transverse abdominal incision was made, and the pedicles to the median and lateral lobes of the liver (˜70% of the volume of the liver) were temporarily occluded using a small vascular clamp (FE011K, Aesculap, Melsungen, Germany). This approach has been utilized for testing the effect of hepatic IRI on biliary excretion of fluorescein. During the designated time period for hepatic IRI, the abdominal wall was temporarily closed to prevent dehydration and heat loss.
For injection and sampling, blood vessels and the bile duct were cannulated as follows: a midline incision was made on the neck, and 8- to 10-cm polyethylene tubes were cannulated to the right jugular vein (0.58 mm inner diameter (ID)×0.97 mm outer diameter (OD); PE50, Braintree Scientific, Braintree, MA) and right carotid artery (0.28 mm ID×0.61 mm OD; PE10, Braintree Scientific, Braintree, MA). The polyethylene tubes in the vessels were attached to a 30-gauge blunt needle (SAI Infusion Technologies, Lake Villa, IL) and filled with 20 U/mL heparin in 0.9% saline. Another polyethylene tube (0.28 mm ID×0.61 mm OD; PE10, Braintree Scientific, Braintree, MA) was cannulated into the bile duct for bile sampling (FIG. 33B). The cannulation procedure was performed under a surgical microscope (Amscope, Irvine, CA).
Blood and bile were collected at eight time points over 60 min (0, 2, 5, 10, 20, 30, 45, and 60 min). At each time point, 180 μL of blood was collected by a heparin-coated syringe from the polyethylene tubing in the left carotid artery and mixed with 20 μL of heparin solution (10,000 U/mL). Of this 200-μL blood sample, 20 μL was used for whole blood analysis. The remaining 180 μL was centrifuged (3,000 rpm for 10 min), and 20 μL of supernatant was collected for plasma sample analysis. Likewise, 30 μL of bile was collected from the polyethylene tubing in the bile duct at each time point.
Once the baseline (0 min) samples were collected, sodium fluorescein (Sigma-Aldrich, St. […]
The blood, plasma, and bile samples (20 μL each) were placed in a 384-well plate (Greiner Bio-one, Monroe, NC) and covered with plastic film to minimize evaporation. The fluorescence intensity was measured in the samples using a microplate reader (CLARIOstar, BMG Labtech, Ortenberg, Germany), with the excitation set at 478 nm and emission light collected within the 505-552-nm spectral range. […]

[3] = normal rats; ICG 10 μg/kg, sodium fluorescein 2 mg/kg; cited from earlier work
[4] = Fluorescein clearance (bile-to-perfusate fluorescence) in ex vivo rat liver machine perfusion; conditions: WIT varied, CIT constant at 3 hours
Description: This Example presents data obtained using ex vivo rat liver tissue in a perfusion machine system and provides further evidence supporting the usefulness of such measurements as a way to assess transplant tissue health and quality. With liver transplant there are two ischemia times: warm ischemia time (WIT) which is the time from tissue removal from the donor until cold fluid perfusion into the liver tissue; after cold perfusion, the remaining ischemia is termed cold ischemia time (CIT), which is slower. Most liver tissue can tolerate up to 30 min. of WIT whereas CIT can be tolerated for up to 12 hours. A certain amount of WIT and CIT cannot be prevented since some time is always required at each stage, nevertheless the goal is to minimize WIT.
In the experiments of FIG. 39, the WIT was varied while keeping the CIT constant at 3 hours. After this regimen, the fluorescein clearance was tested and the ratio of fluorescein in bile relative to the amount in perfusate was determined at various times.

[5] = normal value; cited from earlier work
Mrp2, Mrp3, and Mrp4 = conditions: daily gavage for 4 days consecutively; normal mouse liver (without IRI); cited from earlier work
[6] = severe hepatic IRI (WIT=60 min) vs control and mild IRI groups, 2 mg/kg i.v.

Row | bile-to-plasma (or bile-to-whole blood) fluorescence ratios in the 60-min WIT group ([2]; 2 mg/kg i.v., vs control or 30-min WIT groups) | excretion of fluorescein measured by fluorescence in bile samples ([2]; IRI vs control, intravenous infusion, preliminary in vivo rat experiment (FIG. 4)) | significant clearance of fluorescein from blood into bile ([2]; i.v. bolus 2 mg/kg) | delay of clearance from blood into bile ([2]; i.v. dose of 10 mg/kg) | hepatic clearance of fluorescein ([2]; in hepatic IRI) | fluorescence intensities in bile [2, 6] | fluorescence intensities in whole blood and plasma [2, 6] | area under the curve (AUC) of bile-to-perfusate fluorescence intensity [4] | time course of bile-to-perfusate fluorescence intensity values (excretion of fluorescein) [4] | Structure (SMILES) | time to equilibrium of fluorescence intensity in hepatocytes and bile ([1]; after dye injection) | time in which metabolism by the liver through membrane transporters and excretion into bile occurs ([1]; healthy liver) | time to clearance from the blood into the bile ([1]; intravenous administration, normal livers) | bile-to-plasma fluorescence ratios across warm ischemia time (WIT) groups ([2]; 2 mg/kg i.v., WIT 0, 30, 60 min, 1 h or 4 h reperfusion) | time to reach a steady state [3] | ICG retention ratio after 15 min (ICGR15) [5] | plasma disappearance rate (ICGPDR) [5] | induction of Mrp2, Mrp3, and Mrp4 (Mrp2, Mrp3, and Mrp4)
1 | distinctly lower | noticeably compromised | observed immediately | over 1 h | suppressed | lower | elevated | inversely correlated with WIT | compromised excretion | O=C1OC2(c3ccc(O)cc3Oc3cc(O)ccc32)c2ccccc21 [sodium fluorescein] | ≤ 5 min | ≤ 15 min | ≤ 5 min | inverse correlation with WIT; also recorded: stepwise decrease | < 10 min | – | – | –
2 | – | – | – | – | – | – | – | – | – | CC1(C)C(/C=C/C=C/C=C/C=C2\N(CCCCS(=O)(=O)O)c3ccc4ccccc4c3C2(C)C)=[N+](CCCCS(=O)(=O)[O-])c2ccc3ccccc3c21 [ICG, Indocyanine green] | – | – | – | – | < 30 min | < 10% | over 18 %/min | –
3 | – | – | – | – | – | – | – | – | – | Cc1c(-c2cnccn2)ssc1=S [oltipraz] | – | – | – | – | – | – | – | induced

From US20250324965A1, “Indicator Clearance Monitoring in Machine Perfusion of an Organ” (The Medical College of Wisconsin, Inc., priority 2021, published 2025)
